Patent publication US8877748B2, “Heterocyclic fused anthraquinone derivatives, manufacturing method and pharmaceutical composition using thereof” (National Defense Medical Center, priority 2012, dated 2014)
Several values for one entry are separate records, joined by “and”; a condition that tells them apart may be missing. Equal entries are not always repeated. Where two headings read alike, the source gives them in different places.

Key:
T-47D = assay: NCI one-dose screening, breast cancer T-47D; type: cell-based, human; conditions: 10 μM
NCI-H322M = assay: NCI one-dose screening, non-small cell lung cancer NCI-H322M; type: cell-based, human; conditions: 10 μM; Non-small cell lung cancer
UACC-62 = assay: NCI one-dose screening, melanoma UACC-62; type: cell-based, human; conditions: 10 μM
HCT-116 = assay: NCI one-dose screening, colon cancer HCT-116; type: cell-based, human; conditions: 10 μM
LOX IMVI = assay: NCI one-dose screening, melanoma LOX IMVI; type: cell-based, human; conditions: 10 μM
HOP-92 = assay: NCI one-dose screening, non-small cell lung cancer HOP-92; type: cell-based, human; conditions: 10 μM
HS 578-T = assay: NCI one-dose screening, breast cancer HS 578-T; type: cell-based, human; conditions: 10 μM; Breast cancer
[1] = test system: PC-3 prostate cancer cell line; assay: SRB assay cell viability, PC-3 prostate cancer cell line; type: cell-based, human
NCI-H522 = assay: NCI one-dose screening, non-small cell lung cancer NCI-H522; type: cell-based, human; conditions: 10 μM
SK-MEL-5 = assay: NCI one-dose screening, melanoma SK-MEL-5; type: cell-based, human; conditions: 10 μM
HCC-2998 = assay: NCI one-dose screening, colon cancer HCC-2998; type: cell-based, human; conditions: 10 μM
SF-268 = assay: NCI one-dose screening, CNS cancer SF-268; type: cell-based, human; conditions: 10 μM
MDA-MB-231/ATCC = assay: NCI one-dose screening, breast cancer MDA-MB-231/ATCC; type: cell-based, human; conditions: 10 μM
SN12C = assay: NCI one-dose screening, renal cancer SN12C; type: cell-based, human; conditions: 10 μM
UO-31 = assay: NCI one-dose screening, renal cancer UO-31; type: cell-based, human; conditions: 10 μM
SK-MEL-28 = assay: NCI one-dose screening, melanoma SK-MEL-28; type: cell-based, human; conditions: 10 μM
SNB-75 = assay: NCI one-dose screening, CNS cancer SNB-75; type: cell-based, human; conditions: 10 μM
HCT-15 = assay: NCI one-dose screening, colon cancer HCT-15; type: cell-based, human; conditions: 10 μM
IGROV1 = assay: NCI one-dose screening, ovarian cancer IGROV1; type: cell-based, human; conditions: 10 μM
SF-295 = assay: NCI one-dose screening, CNS cancer SF-295; type: cell-based, human; conditions: 10 μM
786-O = assay: NCI one-dose screening, renal cancer 786-O; type: cell-based, human; conditions: 10 μM
U251 = assay: NCI one-dose screening, CNS cancer U251; type: cell-based, human; conditions: 10 μM
CAKI-1 = assay: NCI one-dose screening, renal cancer CAKI-1; type: cell-based, human; conditions: 10 μM
SNB-19 = assay: NCI one-dose screening, CNS cancer SNB-19; type: cell-based, human; conditions: 10 μM
BT-549 = assay: NCI one-dose screening, breast cancer BT-549; type: cell-based, human; conditions: 10 μM
K562cell line = assay: NCI one-dose screening, leukemia K562; type: cell-based, human; conditions: 10 μM
UACC-257 = assay: NCI one-dose screening, melanoma UACC-257; type: cell-based, human; conditions: 10 μM
SR = assay: NCI one-dose screening, leukemia SR; type: cell-based, human; conditions: 10 μM
OVCAR-8 = assay: NCI one-dose screening, ovarian cancer OVCAR-8; type: cell-based, human; conditions: 10 μM
OVCAR-3 = assay: NCI one-dose screening, ovarian cancer OVCAR-3; type: cell-based, human; conditions: 10 μM
CCRF-CEM = assay: NCI screening platform one-dose single concentration screening, leukemia CCRF-CEM; type: cell-based, human; conditions: 10 μM
RXF, 393 = assay: NCI one-dose screening, renal cancer RXF, 393; type: cell-based, human; conditions: 10 μM
HOP-62 = assay: NCI one-dose screening, non-small cell lung cancer HOP-62; type: cell-based, human; conditions: 10 μM
SK-MEL-2 = assay: NCI one-dose screening, melanoma SK-MEL-2; type: cell-based, human; conditions: 10 μM
PC-3 = assay: NCI one-dose screening, prostate cancer PC-3; type: cell-based, human; conditions: 10 μM
MCF7 = assay: NCI one-dose screening, breast cancer MCF7; type: cell-based, human; conditions: 10 μM
NCI-H460 = assay: NCI one-dose screening, non-small cell lung cancer NCI-H460; type: cell-based, human; conditions: 10 μM
NCI-H23 = assay: NCI one-dose screening, non-small cell lung cancer NCI-H23; type: cell-based, human; conditions: 10 μM
MOLT-4 = assay: NCI one-dose screening, leukemia MOLT-4; type: cell-based, human; conditions: 10 μM
A549/ATCC = assay: NCI one-dose screening, non-small cell lung cancer A549/ATCC; type: cell-based, human; conditions: 10 μM
COLO 205 = assay: NCI one-dose screening, colon cancer COLO 205; type: cell-based, human; conditions: 10 μM
M14 = assay: NCI one-dose screening, melanoma M14; type: cell-based, human; conditions: 10 μM
[2] = NCI one-dose screening, renal cancer A489; type: cell-based, human; conditions: 10 μM
TK-10 = assay: NCI one-dose screening, renal cancer TK-10; type: cell-based, human; conditions: 10 μM
human tumor cell lines = assay: NCI one-dose screening, Mean / Delta / Range of growth percent over all tested cell lines; type: cell-based; conditions: 10 μM; for Growth Percent Delta: delta over all cell lines; for Growth Percent Mean: mean over all cell lines; for Growth Percent Range: range over all cell lines
MALME-3M = assay: NCI one-dose screening, melanoma MALME-3M; type: cell-based, human; conditions: 10 μM
HL-60, TB = assay: NCI one-dose screening, leukemia HL-60, TB; type: cell-based, human; conditions: 10 μM
PRMI-8226 cell line = assay: NCI one-dose screening, leukemia PRMI-8226; type: cell-based, human; conditions: 10 μM
OVCAR-4 = assay: NCI one-dose screening, ovarian cancer OVCAR-4; type: cell-based, human; conditions: 10 μM
DU145 = assay: NCI one-dose screening, prostate cancer DU145; type: cell-based, human; conditions: 10 μM
MDA-MB-468 = assay: NCI one-dose screening, breast cancer MDA-MB-468; type: cell-based, human; conditions: 10 μM
SF-539 = assay: NCI one-dose screening, CNS cancer SF-539; type: cell-based, human; conditions: 10 μM
SK-OV-3 = assay: NCI one-dose screening, ovarian cancer SK-OV-3; type: cell-based, human; conditions: 10 μM
KM12 = assay: NCI one-dose screening, colon cancer KM12; type: cell-based, human; conditions: 10 μM
NCI-H226 = assay: NCI one-dose screening, non-small cell lung cancer NCI-H226; type: cell-based, human; conditions: 10 μM

## O=C1c2ccccc2C(=O)c2c1cc(Cl)c1nsnc21 [C2, 4-Chloro-anthraquinone[2,1-c][1,2,5] thiadiazole-6,11-dione]
T-47D
  Growth Percent T-47D: −54.59%
NCI-H322M
  Growth Percent NCI-H322M: 75.02%
UACC-62
  Growth Percent UACC-62: 72.91%
HCT-116
  Growth Percent HCT-116: 48.15%
LOX IMVI
  Growth Percent LOX IMVI: 10.23%
HOP-92
  Growth Percent HOP-92: 75.8%
HS 578-T
  Growth Percent HS 578T: 72.54%
[1]; PC-3 prostate cancer cell line, Table II prints no unit, μM printed, read-out: SRB assay: 50% inhibition of cancer cell proliferation of sample concentration (IC50) of PC-3 prostate cancer cell line
  IC50: 13.5 µM
NCI-H522
  Growth Percent NCI-H522: 100.18%
SK-MEL-5
  Growth Percent SK-MEL-5: 72.45%
HCC-2998
  Growth Percent HCC-2998: 105.67%
SF-268
  Growth Percent SF-268: 37.03%
MDA-MB-231/ATCC
  Growth Percent MDA-MB-231/ATCC: −23.35%
SN12C
  Growth Percent SN12C: 71.92%
UO-31
  Growth Percent UO-31: 80.15%
SK-MEL-28
  Growth Percent SK-MEL-28: 131.75%
SNB-75
  Growth Percent SNB-75: 85.25%
HCT-15
  Growth Percent HCT-15: 96.8%
IGROV1
  Growth Percent IGROV1: 52.47%
SF-295
  Growth Percent SF-295: 109.08%
786-O
  Growth Percent 786-0: 102.14%
U251
  Growth Percent U251: 29.19%
CAKI-1
  Growth Percent CAKI-1: 96.51%
SNB-19
  Growth Percent SNB-19: 105.75%
BT-549
  Growth Percent BT-549: 101.5%
K562cell line
  Growth Percent K562: 2.44%
UACC-257
  Growth Percent UACC-257: 76.09%
SR
  Growth Percent SR: −23.86%
OVCAR-8
  Growth Percent OVCAR-8: −4.57%
OVCAR-3
  Growth Percent OVCAR-3: 49.88%
CCRF-CEM
  Growth Percent CCRF-CEM: −41.78%
RXF, 393
  Growth Percent RXF 393: 71.92%
HOP-62
  Growth Percent HOP-62: 82.19%
SK-MEL-2
  Growth Percent SK-MEL-2: 0.21%
PC-3
  Growth Percent PC-3: 23.54%
MCF7
  Growth Percent MCF7: 65.36%
NCI-H460
  Growth Percent NCI-H460: 108.2%
NCI-H23
  Growth Percent NCI-H23: 100.39%
MOLT-4
  Growth Percent MOLT-4: −34.12%
A549/ATCC
  Growth Percent A549/ATCC: 103.21%
COLO 205
  Growth Percent COLO 205: 99.08%
M14
  Growth Percent M14: 102.73%
[2]
  Growth Percent A498: 93.79%
TK-10
  Growth Percent TK-10: 134.06%
Human tumor cell lines
  Growth Percent Delta: 143.22%
  Growth Percent Mean: 54.91%
  Growth Percent Range: 222.37%
MALME-3M
  Growth Percent MALME-3M: 97.09%
HL-60, TB
  Growth Percent HL-60(TB): 1.87%
PRMI-8226 cell line
  Growth Percent RPMI-8226: 27.81%
OVCAR-4
  Growth Percent OVCAR-4: −75.03%
DU145
  Growth Percent DU145: 96.95%
MDA-MB-468
  Growth Percent MDA-MB-468: −88.31%
SF-539
  Growth Percent SF-539: 108.52%
SK-OV-3
  Growth Percent SK-OV-3: 109.05%
KM12
  Growth Percent KM12: 95.88%

## O=C1c2ccccc2C(=O)c2c1cc(Sc1ccccc1)c1nsnc21 [C19, 4-(phenylthio)anthra[2,1-c][1,2,5] thiadiazol-6,11-dione]
T-47D
  Growth Percent T-47D: 93.21%
NCI-H322M
  Growth Percent NCI-H322M: 79.21%
UACC-62
  Growth Percent UACC-62: 86.28%
HCT-116
  Growth Percent HCT-116: 90.08%
LOX IMVI
  Growth Percent LOX IMVI: 42%
HOP-92
  Growth Percent HOP-92: 110.22%
HS 578-T
  Growth Percent HS 578T: 95.89%
[1]; Homo sapiens, PC-3 prostate cancer cell line, Table II prints no unit, μM printed, read-out: SRB assay: 50% inhibition of cancer cell proliferation of sample concentration (IC50) of PC-3 prostate cancer cell line
  IC50: 28.6 µM
[1]; Homo sapiens, PC-3 prostate cancer cells, read-out: IC50 in PC-3 prostate cancer cells (cell viability analysis)
  IC50: > 15 µM
NCI-H522
  Growth Percent NCI-H522: 100.56%
SK-MEL-5
  Growth Percent SK-MEL-5: 85.68%
HCC-2998
  Growth Percent HCC-2998: 110.88%
SF-268
  Growth Percent SF-268: 102.24%
MDA-MB-231/ATCC
  Growth Percent MDA-MB-231/ATCC: 66.67%
SN12C
  Growth Percent SN12C: 96.58%
UO-31
  Growth Percent UO-31: 80.12%
SK-MEL-28
  Growth Percent SK-MEL-28: 127.12%
SNB-75
  Growth Percent SNB-75: 96.12%
HCT-15
  Growth Percent HCT-15: 93.89%
IGROV1
  Growth Percent IGROV1: 84.4%
SF-295
  Growth Percent SF-295: 106.36%
786-O
  Growth Percent 786-0: 110.04%
U251
  Growth Percent U251: 88.75%
CAKI-1
  Growth Percent CAKI-1: 89.04%
SNB-19
  Growth Percent SNB-19: 108.79%
BT-549
  Growth Percent BT-549: 104.68%
K562cell line
  Growth Percent K562: 52.03%
UACC-257
  Growth Percent UACC-257: 92.75%
SR
  Growth Percent SR: 86.41%
OVCAR-8
  Growth Percent OVCAR-8: 82.3%
NCI-H226
  Growth Percent NCI-H226: 117.67% and 94.91%
OVCAR-3
  Growth Percent OVCAR-3: 96.67%
CCRF-CEM
  Growth Percent CCRF-CEM: 15.74%
RXF, 393
  Growth Percent RXF 393: 114.31%
HOP-62
  Growth Percent HOP-62: 97.77%
SK-MEL-2
  Growth Percent SK-MEL-2: 112.49%
PC-3
  Growth Percent PC-3: 87.32%
MCF7
  Growth Percent MCF7: 94.88%
NCI-H460
  Growth Percent NCI-H460: 100.74%
NCI-H23
  Growth Percent NCI-H23: 101.59%
MOLT-4
  Growth Percent MOLT-4: 31.08%
A549/ATCC
  Growth Percent A549/ATCC: 105.68%
COLO 205
  Growth Percent COLO 205: 117.53%
M14
  Growth Percent M14: 106.41%
[2]
  Growth Percent A498: 95.01%
TK-10
  Growth Percent TK-10: 143.47%
Human tumor cell lines
  Growth Percent Delta: 77.74%
  Growth Percent Mean: 93.48%
  Growth Percent Range: 123.73%
MALME-3M
  Growth Percent MALME-3M: 106.43%
HL-60, TB
  Growth Percent HL-60(TB): 83.94%
PRMI-8226 cell line
  Growth Percent RPMI-8226: 78.21%
OVCAR-4
  Growth Percent OVCAR-4: 57.83%
DU145
  Growth Percent DU145: 102.73%
MDA-MB-468
  Growth Percent MDA-MB-468: 87.29%
SF-539
  Growth Percent SF-539: 106.54%
SK-OV-3
  Growth Percent SK-OV-3: 105.6%
KM12
  Growth Percent KM12: 99.5%
